Results as given in patent US10968196B2, “Substituted β-lapachones for treating cancer” (University of Pittsburgh—Of the Commonwealth System of …, priority 2015, dated 2021).

System: DNA damage signaling
Assay: Western blot of DNA damage signaling activation
Type: cell-based
Settings: A549, western blot after treatment (FIG. 9)
Procedure: Western blot was performed […] after treatment to examine the activation of DNA damage signaling. Antibodies used in the Western Blot were β-actin (AC-15) and ATM (MAT3-4G10/8) (from Sigma); Chk1 (2G1D5), phospho-Chk2 (Thr68) (C13C1), Chk2 (1C12) (from Cell Signaling Technology); phospho-Chk1 (Ser317) (from R&D systems); and phospho-ATM (S1981) (from Epitomics).

In the case of `CC(C)C[C@@H](/C=C/[C@H](Cc1ccccc1)C(=O)N1CCC[C@H]1C(=O)N[C@H](C(=O)N[C@@H](CCCNC(=O)OCc1ccccc1)C(=O)NCCC(=O)OC1CC2=C(OC1(C)C)c1ccccc1C(=O)C2=O)C(C)C)NC(=O)OC(C)(C)C` (stereo partly drawn) [XJB-lapachone, 2,2-Dimethyl-5,6-dioxo-3,4,5,6-tetrahydro-2H-benzo[h]chromen-3-yl 3-((S)-2-((S)-2-((S)-1-((2S,5S,E)-2-benzyl-5-((tert-butoxycarbonyl)amino)-7-methyloct-3-enoyl)pyrrolidine-2-carboxamido)-3-methylbutanamido)-5-(((benzyloxy)carbonyl)amino)pentanamido) propanoate], the “activation of DNA damage signaling (DNA damage)” value is reported as “induces DNA damage”.
